Results published in patent US20240217968A1, “PHARMACEUTICAL COMPOUND” (DUKE STREET BIO LIMITED, priority 2021, published 2024).

Biological target: T1, recombinant human Flag-tagged PARP7 (amino acids 456-657) (Homo sapiens, UniProt Q7Z3E1)
T1 construct: recombinant human Flag-tagged PARP7 (amino acids 456-657)
T1 sequence (Q7Z3E1 456-657): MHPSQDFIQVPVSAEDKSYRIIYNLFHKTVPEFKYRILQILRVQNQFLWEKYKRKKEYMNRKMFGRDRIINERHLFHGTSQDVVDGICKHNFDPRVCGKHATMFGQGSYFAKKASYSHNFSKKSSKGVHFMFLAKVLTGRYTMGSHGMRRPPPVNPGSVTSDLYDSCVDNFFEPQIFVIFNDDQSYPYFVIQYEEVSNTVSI
Assay: PARP7 biochemical DELFIA assay (auto-MARylation)
Conditions: DELFIA readout, IC50 class
Outline: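 Readout is DELFIA time-resolved Eu fluorescence (Ex337 nm, Em620 nm) of biotin-ADP-ribose on immobilised Flag-tagged PARP7 456-657. Enzyme (12.5-37.5 nM as added) sat 30 min with compound before biotin-NAD+ (15 μM solution, pH 7.5 HEPES buffer) started 2-3 h room-temperature self-modification, stopped with excess NAD+.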

SMILES	IC50
O=C(CCOCCn1nc(C(F)(F)F)c2c(=O)[nH]ncc21)N1CCN(c2nc3ccc(F)cc3o2)CC1 [Compound 183]	≤ 100 nM
O=C(CCOCCn1c(C(F)(F)F)nc2c(=O)[nH]ncc21)N1CCN(c2ncc(C(F)(F)F)cn2)CC1 [Compound 184]	100 to 1000 nM
CC(COCCC(=O)N1CCN(c2ncc(Cl)cn2)CC1)n1nc(C(F)(F)F)c2c(=O)[nH]ncc21 (stereo not drawn) [Compound 186]	≤ 100 nM
O=C(CCOCCn1nc(C(F)(F)F)c2c(=O)[nH]ncc21)N1CCN(c2nc3ccc(Cl)cc3o2)CC1 [Compound 191]	≤ 100 nM
N#Cc1ccc2nc(N3CCN(C(=O)CCOCCc4cccc5c(=O)[nH]ncc45)CC3)oc2c1 [Compound 192]	≤ 100 nM
CC1(C)CN(c2ncc(C(F)(F)F)cn2)CCN1C(=O)CCOCCn1nc(C(F)(F)F)c2c(=O)[nH]ncc21 [Compound 193]	≤ 100 nM
Cn1c(N2CCN(C(=O)CCOCCn3nc(C(F)(F)F)c4c(=O)[nH]ncc43)CC2)nc2ccccc21 [Compound 195]	≤ 100 nM
N#Cc1ccc2oc(N3CCN(C(=O)CCOCCn4nc(C(F)(F)F)c5c(=O)[nH]ncc54)CC3)nc2c1 [Compound 196]	≤ 100 nM
O=C(CCOCCc1cccc2c(=O)[nH]ncc12)N1CCC(Oc2ccccc2)CC1 [Compound 197]	100 to 1000 nM
O=C(CCOCCn1cc(C(F)F)c2c(=O)[nH]ncc21)N1CCN(c2ncc(C(F)(F)F)cn2)CC1 [Compound 198]	≤ 100 nM
O=C(CCOCCc1cccc2c(=O)[nH]ncc12)N1CCN(c2nc3cc(F)ccc3o2)CC1 [Compound 199]	≤ 100 nM
O=C(CCOCCn1cc(C(F)F)c2c(=O)[nH]ncc21)N1CCN(c2ccc(C(F)(F)F)cn2)CC1 [Compound 200]	≤ 100 nM
CC(COCCn1nc(C(F)(F)F)c2c(=O)[nH]ncc21)C(=O)N1CCN(c2ncc(C(F)(F)F)cn2)CC1 (stereo not drawn) [Compound 201]	≤ 100 nM
CC(COCCn1nc(C(F)(F)F)c2c(=O)[nH]ncc21)C(=O)N1CCN(c2ncc(C(F)(F)F)cn2)CC1 (stereo not drawn) [Compound 202]	≤ 100 nM
CCn1cc(CCOCCC(=O)N2CCN(c3ncc(C(F)(F)F)cn3)CC2)c2cn[nH]c(=O)c21 [Compound 203, 1-ethyl-3-(2-(3-oxo-3-(4-(5-(trifluoromethyl)pyrimidin-2-yl)piperazin-1-yl)propoxy)ethyl)-1,6-dihydro-7H-pyrrolo[2,3-d]pyridazin-7-one]	≤ 100 nM
N#Cc1ccc(N2CCN(C(=O)c3cccc(Cc4cccc5c4CCCNC5=O)c3)CC2)nc1 [Compound 204]	100 to 1000 nM
O=C(CCOCCc1cccc2c(=O)[nH]ncc12)N1CCN(c2nc3ccc(Cl)cc3o2)CC1 [Compound 205]	≤ 100 nM
CC(COCCc1cccc2c(=O)[nH]ncc12)C(=O)N1CCN(c2ncc(C(F)(F)F)cn2)CC1 (stereo not drawn) [Compound 206]	≤ 100 nM
O=C(CCOCCc1cccc2c(=O)[nH]ncc12)N1CCN(c2ccc(C(F)(F)F)cc2)C(=O)C1 [Compound 207]	100 to 1000 nM
N#Cc1ccc2oc(N3CCN(C(=O)CCOCCc4cccc5c(=O)[nH]ncc45)CC3)nc2c1 [Compound 208]	≤ 100 nM

SMILES	IC50
CCC(OCCCC(=O)N1CCN(c2ncc(C(F)(F)F)cn2)CC1)c1cccc2c(=O)[nH]ncc12 (stereo not drawn) [Compound 209]	≤ 100 nM
CC(COCCC(=O)N1CCN(c2ccc(Cl)cn2)CC1)n1nc(C(F)(F)F)c2c(=O)[nH]ncc21 (stereo not drawn) [Compound 211]	≤ 100 nM
CC(COCCC(=O)N1CCN(c2ccc(Cl)cn2)CC1)n1nc(C(F)(F)F)c2c(=O)[nH]ncc21 (stereo not drawn) [Compound 212]	≤ 100 nM
O=C(CCOCCc1cccc2c(=O)[nH]ncc12)N1CCN(c2nc3ccccc3[nH]2)CC1 [Compound 213]	≤ 100 nM
Cn1c(N2CCN(C(=O)CCOCCc3cccc4c(=O)[nH]ncc34)CC2)nc2ccccc21 [Compound 214]	≤ 100 nM
O=C(CCOCCn1nc(C(F)(F)F)c2c(=O)[nH]ncc21)N1CCN(c2nc3cc(F)ccc3o2)CC1 [Compound 215, 1-(2-(3-(4-(5-fluorobenzo[d]oxazol-2-yl)piperazin-1-yl)-3-oxopropoxy)ethyl)-3-(trifluoromethyl)-1,5-dihydro-4H-pyrazolo[3,4-d]pyridazin-4-one]	≤ 100 nM
O=C1CCc2cnc(N3CCN(C(=O)CCOCCc4cccc5c(=O)[nH]ncc45)CC3)nc2N1 [Compound 216]	≤ 100 nM
Cc1ccc(CCOCCC(=O)N2CCN(c3ncc(C(F)(F)F)cn3)CC2)c2cn[nH]c(=O)c12 [Compound 217]	≤ 100 nM
N#Cc1ccc2nc(N3CCN(C(=O)CCOCCn4nc(C(F)(F)F)c5c(=O)[nH]ncc54)CC3)oc2c1 [Compound 218]	≤ 100 nM
O=C(CCOCCc1cccc2c(=O)[nH]ncc12)N1CCC(c2cc(C(F)(F)F)on2)CC1 [Compound 219]	100 to 1000 nM
O=C(CCOCCc1cccc2c(=O)[nH]ncc12)N1CCN(c2ncc3c(n2)NCCC3)CC1 [Compound 220]	≤ 100 nM
O=C(CCOCCc1ccc(Cl)c2c(=O)[nH]ncc12)N1CCN(c2ncc(C(F)(F)F)cn2)CC1 [Compound 226]	≤ 100 nM
O=C(CCOCCc1c(F)ccc2c(=O)[nH]ncc12)N1CCN(c2ncc(C(F)(F)F)cn2)CC1 [Compound 229]	≤ 100 nM
Cc1c(C)n(CCOCCC(=O)N2CCN(c3ncc(C(F)(F)F)cn3)CC2)c2cn[nH]c(=O)c12 [Compound 230]	≤ 100 nM
O=C(CCOCCc1cncc2c(=O)[nH]ncc12)N1CCN(c2ncc(C(F)(F)F)cn2)CC1 [Compound 231]	≤ 100 nM
O=C(CCOCCn1cc(C(F)(F)F)c2c(=O)[nH]ncc21)N1CCN(c2ncc(Cl)cn2)CC1 [Compound 232]	≤ 100 nM
O=C(CCOCCc1cccc2c(=O)[nH]ccc12)N1CCN(c2ncc(C(F)(F)F)cn2)CC1 [Compound 233]	≤ 100 nM
O=C1NCCn2c(CCOCCC(=O)N3CCN(c4ncc(C(F)(F)F)cn4)CC3)nc(C(F)(F)F)c21 [Compound 235, 3-(2-(3-oxo-3-(4-(5-(trifluoromethyl)pyrimidin-2-yl)piperazin-1-yl)propoxy)ethyl)-1-(trifluoromethyl)-6,7-dihydroimidazo[1,5-a]pyrazin-8(5H)-one]	≤ 100 nM
O=C(CCOCCn1nc(C(F)F)c2c(=O)[nH]ncc21)N1CCN(c2ncc(C(F)(F)F)cn2)CC1 [Compound 236, 3-(difluoromethyl)-1-(2-(3-oxo-3-(4-(5-(trifluoromethyl)pyrimidin-2-yl)piperazin-1-yl)propoxy)ethyl)-1,5-dihydro-4H-pyrazolo[3,4-d]pyridazin-4-one]	≤ 100 nM
CC1(C)CN(C(=O)CCOCCn2cc(C(F)(F)F)c3c(=O)[nH]ncc32)CCN1c1ccc(C(F)(F)F)cn1 [Compound 237]	≤ 100 nM

SMILES	IC50
O=C(CCOCCn1cc(C(F)(F)F)c2c(=O)[nH]ncc21)N1CCN(c2ccc(Cl)cn2)CC1 [Compound 238]	≤ 100 nM
O=C(CCOCCN1C(=O)CCc2c1cn[nH]c2=O)N1CCN(c2ccc(C(F)(F)F)cn2)CC1 [Compound 240, 1-(2-(3-oxo-3-(4-(5-(trifluoromethyl)pyridin-2-yl)piperazin-1-yl)propoxy)ethyl)-4,6-dihydropyrido[2,3-d]pyridazine-2,5(1H,3H)-dione]	≤ 100 nM
O=C(CCOCCN1C(=O)CCc2c1cn[nH]c2=O)N1CCN(c2ncc(Cl)cn2)CC1 [Compound 242]	≤ 100 nM
Cc1nn(C(C)COCCC(=O)N2CCN(c3ccc(C#N)cn3)CC2)c2cn[nH]c(=O)c12 (stereo not drawn) [Compound 243]	≤ 100 nM
Cc1nn(C(C)COCCC(=O)N2CCN(c3ccc(C#N)cn3)CC2)c2cn[nH]c(=O)c12 (stereo not drawn) [Compound 244]	≤ 100 nM
Cc1nn(C(C)COCCC(=O)N2CCN(c3ncc(C(F)(F)F)cn3)CC2)c2cn[nH]c(=O)c12 (stereo not drawn) [Compound 246]	≤ 100 nM
O=C(CCOCCn1nc(C(F)(F)F)c2c(=O)[nH]ncc21)N1CCN(c2ncc(C(F)(F)F)s2)CC1 [Compound 247]	≤ 100 nM
CC(COCCC(=O)N1CCN(c2nc(C#N)cs2)CC1)n1nc(C(F)(F)F)c2c(=O)[nH]ncc21 (stereo not drawn) [Compound 251]	≤ 100 nM
CC(C)(C)c1cnc(N2CCN(C(=O)CCOCCc3cccc4c(=O)[nH]ncc34)CC2)nc1 [Compound 252]	≤ 100 nM
Cc1nn(CCOCCC(=O)N2CCN(c3ncc(C(F)(F)F)cn3)C(C)C2)c2cn[nH]c(=O)c12 (stereo not drawn) [Compound 256]	≤ 100 nM
O=C(CCOCCn1nc(C(F)(F)F)c2c(=O)[nH]ncc21)N1CCN(c2nc3ccccc3[nH]2)CC1 [Compound 257]	≤ 100 nM
CC(COCCC(=O)N1CCN(c2ncc(C(F)(F)F)s2)CC1)n1nc(C(F)(F)F)c2c(=O)[nH]ncc21 (stereo not drawn) [Compound 259]	≤ 100 nM
CCc1nc2c(=O)[nH]ncc2n1CCOCCC(=O)N1CCN(c2ncc(C(F)(F)F)cn2)CC1 [Compound 260]	1000 to 10000 nM
O=C(CCOCCN1C(=O)CCc2c1cn[nH]c2=O)N1CCN(c2ccc(Cl)cn2)CC1 [Compound 261]	≤ 100 nM
CC(COCCC(=O)N1CCN(c2ncc(C(F)F)cn2)CC1)n1nc(C(F)(F)F)c2c(=O)[nH]ncc21 (stereo not drawn) [Compound 264]	≤ 100 nM
CC(COCCC(=O)N1CCN(c2ncc(C(F)F)cn2)CC1)n1nc(C(F)(F)F)c2c(=O)[nH]ncc21 (stereo not drawn) [Compound 265]	≤ 100 nM
CC(COCCC(=O)N1CCN(c2cnc(C(F)(F)F)cn2)CC1)n1nc(C(F)(F)F)c2c(=O)[nH]ncc21 (stereo not drawn) [Compound 267]	≤ 100 nM
Cc1nn(CCOCCC(=O)N2CCN(c3ncc(C(F)(F)F)cn3)CC2C)c2cn[nH]c(=O)c12 (stereo not drawn) [Compound 268]	≤ 100 nM
CC(COCCC(=O)N1CCN(c2ccc(C#N)cn2)CC1)n1nc(C(F)(F)F)c2c(=O)[nH]ncc21 (stereo not drawn) [Compound 269]	≤ 100 nM
N#Cc1ccc(N2CCN(C(=O)CCOCCn3c(C(F)(F)F)nc4c(=O)[nH]ncc43)CC2)nc1 [Compound 272]	1000 to 10000 nM
